Data on 5 compounds can be found in PubChem BioAssay (NCI).

Test systems include CCRF-CEM leukemia; DMS 273 small cell lung; HOP-18 NSCLC; IGROV1 ovarian; MCF7 breast; MDA-MB-231 breast; OVCAR-5 ovarian; SK-OV-3 ovarian; SW-620 colon; T-47D breast.
What all share (assay): NCI anticancer screen, dose series, 48 h

Values joined by “and” are separate entries in the source; they are usually repeats but may differ in a detail not shown here. Identical values can stand only once.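 Briefly, cells in 96-well plates were exposed to five compound concentrations for 48 h, and endpoints were estimated by linear interpolation. GI50 marks 50% less growth. The concentration for full growth arrest is given as TGI.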

Take `COc1ccc(NC(=O)CC(=O)n2nc(-c3ccccc3)c(N=Nc3ccccc3C)c2-c2ccccc2)cc1`: the TGI with CCRF-CEM leukemia is over 100 µM; in the experiment on DMS 273 small cell lung, 41.2 µM; with HOP-18 NSCLC, over 100 µM; in the experiment with IGROV1 ovarian, 46.2 µM; in the experiment with MCF7 breast, over 100 µM; with MDA-MB-231 breast, over 100 µM. Further, the TGI in the experiment on OVCAR-5 ovarian was over 100 µM; in the experiment on SK-OV-3 ovarian, 36.3 µM; in the experiment with SW-620 colon, over 62.3 µM; with T-47D breast it was 57.7 µM.
Consider `CN1CCN(CCCN2c3ccccc3Sc3ccc(C(F)(F)F)cc32)CC1`, for which the GI50 with CCRF-CEM leukemia was 2.35 µM and 2.17 µM and 8.25 µM; with IGROV1 ovarian, 2.19 µM and 3.77 µM and 9.9 µM; with MCF7 breast it was 1.77 µM; with MDA-MB-231 breast it was 1.75 µM and 6.11 µM and 1.7 µM; in the experiment with OVCAR-5 ovarian, 1.99 µM; in the experiment on SK-OV-3 ovarian, 1.92 µM. The GI50 in the experiment on SW-620 colon is 1.85 µM and 3.67 µM and 8.47 µM; in the experiment with T-47D breast it was 1.6 µM. For the same compound, the TGI with CCRF-CEM leukemia was 6 µM and 6.52 µM and 26.5 µM; with DMS 273 small cell lung, 19.8 µM; in the experiment with HOP-18 NSCLC it was 21.5 µM; in the experiment on IGROV1 ovarian it was 4.98 µM and 11.9 µM and 23 µM; in the experiment with MCF7 breast, 3.29 µM and 18.7 µM; with MDA-MB-231 breast, 3.87 µM and 19.9 µM and 5.08 µM. The TGI with OVCAR-5 ovarian is 4.28 µM and 24.9 µM and 23.2 µM; in the experiment on SK-OV-3 ovarian, 4.15 µM and 27.7 µM and 28.2 µM; in the experiment on SW-620 colon, 4.44 µM and 18.1 µM and 21.4 µM; with T-47D breast, 3.63 µM and 20.2 µM and 23.1 µM.
Take `C=C(CN(C)C)C(=O)c1ccc(OC)cc1`: the TGI in the experiment on CCRF-CEM leukemia was found to be 1.08 µM; in the experiment with DMS 273 small cell lung it was 11.6 µM; in the experiment on HOP-18 NSCLC, 9.35 µM; in the experiment with IGROV1 ovarian it was 22 µM; with MCF7 breast, 21.4 µM; in the experiment with MDA-MB-231 breast it was 17.3 µM. The TGI in the experiment with OVCAR-5 ovarian came out at 29.8 µM; with SK-OV-3 ovarian, 41.3 µM; in the experiment with SW-620 colon it was 5.08 µM; in the experiment with T-47D breast, 4.62 µM.
As for `CC(C)N(C(=O)C12C3C4C5C3C1(C#N)C5C42)C(C)C` (configuration not stated), the TGI in the experiment with CCRF-CEM leukemia, in the experiment with DMS 273 small cell lung, with HOP-18 NSCLC, in the experiment on IGROV1 ovarian, in the experiment with OVCAR-5 ovarian and with SK-OV-3 ovarian was over 100 µM in each case. In the experiment with SW-620 colon, this compound gave a TGI of over 100 µM.
Take `O=c1[nH]c(=O)n(C2OC(CO)C(O)C2O)cc1OCc1ccccc1` (configuration not stated): the TGI was over 78.1 µM in the experiment on CCRF-CEM leukemia; over 100 µM with DMS 273 small cell lung; over 100 µM in the experiment with HOP-18 NSCLC; over 100 µM with IGROV1 ovarian; over 100 µM with OVCAR-5 ovarian; over 100 µM with SK-OV-3 ovarian. In the experiment with SW-620 colon, this compound had a TGI of over 71.8 µM.
